Measurements reported in US10307413B2, “Tetrahydro- and dihydro-isoquinoline PRMT5 inhibitors and uses thereof” (Epizyme, Inc., priority 2013, dated 2019).
Where two headings read alike, the source gives them in different places.

Legend:
PRMT5/MEP50 = PRMT5/MEP50 (Homo sapiens (Human), UniProt O14744); test: PRMT5 Biochemical Assay (PRMT5/MEP50 enzyme assay on peptide substrate, 3H-SAM Flashplate)
How it was run: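 Radiometric methylation of a biotin-tagged H4(1-15) peptide by human PRMT5/MEP50 from baculovirus/Sf9, with ³H-SAM incorporation read on streptavidin Flashplates. Buffer: Bicine pH 7.6, TCEP, BSG, Tween20; compound preincubated 30 min at 25 °C; stopped with 600 µM final unlabeled SAM. DMSO and SAH controls; IC50 from fitted % inhibition.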

[1] = tested on: symmetric di-methyl arginine in Z-138 cells; test: Z-138 Methylation Assay (In Cell Western for symmetric di-methyl arginine and DNA content); format: cell-based; details: Homo sapiens, read-out: ICW EC50
How it was run: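 Z-138 cells (50,000 cells/mL) treated with compound 96 h at 37 °C, then fixed and stained for symmetric di-methyl arginine (800 nm) with DRAQ5 DNA counterstain (700 nm) on Licor Odyssey.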

Z-138 cell line = test: Z-138 Proliferation Assay (Cell Titer Glo, 5 days); format: cell-based; details: Homo sapiens, read-out: Proliferation EC50
How it was run: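 Z-138 cells exposed 5 days at 37 °C, 5% CO2 to nine-point 3-fold dilutions (final top 20 μM, 0.2% DMSO), in triplicate. Viability read as ATP by CellTiter-Glo luminescence; IC50 from 4-parameter fit of normalized dose-response curves.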

[2] = 120 h, Z-138 cells, 5 days, Cell Titer Glo

Sequence of PRMT5/MEP50 (O14744 other isoform, or with tags, fused parts or gaps): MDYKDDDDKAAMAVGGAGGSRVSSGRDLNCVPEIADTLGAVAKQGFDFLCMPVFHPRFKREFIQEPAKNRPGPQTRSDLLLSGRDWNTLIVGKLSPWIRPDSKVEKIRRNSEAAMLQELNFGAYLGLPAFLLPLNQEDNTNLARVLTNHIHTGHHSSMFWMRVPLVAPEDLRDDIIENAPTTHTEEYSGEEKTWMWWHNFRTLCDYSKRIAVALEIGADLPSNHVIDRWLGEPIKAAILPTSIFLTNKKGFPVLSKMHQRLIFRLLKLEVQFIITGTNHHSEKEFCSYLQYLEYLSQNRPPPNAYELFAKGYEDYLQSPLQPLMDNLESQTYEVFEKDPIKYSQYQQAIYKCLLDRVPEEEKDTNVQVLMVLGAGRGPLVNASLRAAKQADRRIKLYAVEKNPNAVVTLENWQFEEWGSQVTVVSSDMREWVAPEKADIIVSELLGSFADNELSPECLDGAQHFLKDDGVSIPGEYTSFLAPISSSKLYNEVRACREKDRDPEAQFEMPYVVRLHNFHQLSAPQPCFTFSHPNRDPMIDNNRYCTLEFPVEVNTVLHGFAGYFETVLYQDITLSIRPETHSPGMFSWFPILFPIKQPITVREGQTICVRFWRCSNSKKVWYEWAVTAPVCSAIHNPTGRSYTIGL
Sequence of PRMT5/MEP50 (Q9BQA1 other isoform, or with tags, fused parts or gaps partner): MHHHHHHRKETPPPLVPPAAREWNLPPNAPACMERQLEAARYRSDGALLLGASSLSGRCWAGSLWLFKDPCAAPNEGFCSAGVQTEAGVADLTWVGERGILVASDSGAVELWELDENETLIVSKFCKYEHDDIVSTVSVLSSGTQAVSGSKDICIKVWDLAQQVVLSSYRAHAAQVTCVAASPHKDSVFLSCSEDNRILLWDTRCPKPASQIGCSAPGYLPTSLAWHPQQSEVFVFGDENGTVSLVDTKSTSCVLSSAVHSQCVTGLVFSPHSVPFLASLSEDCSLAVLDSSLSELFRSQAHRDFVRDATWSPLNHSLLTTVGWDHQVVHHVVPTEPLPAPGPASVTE

IC50 (PRMT5/MEP50) [nM]	EC50 [1] [nM]	IC50 (PRMT5/MEP50; PRMT5 biochemical assay) [nM]	EC50 ([1]; In Cell Western methylation) [nM]	SMILES	EC50 (Z-138 cell line; 120 h, Z-138 cells, 5 days) [nM]	EC50 (Z-138 cell line; [2]) [nM]	EC50 (Z-138 cell line; Z-138, 120 h) [nM]
< 100	> 1000	–	–	Cc1cnc(NC2CNC2)cc1C(=O)NC[C@H](O)CN1CCc2ccccc2C1 [Compound 341]	> 20000	–	–
–	–	< 100	< 100	O=C(NC[C@H](O)CN1CCc2ccccc2C1)c1cc(N[C@H]2C[C@@H](O)C2)ncn1 [Compound 491]	–	101 to 1000	–
< 100	< 100	–	–	CN(C)CCCNc1cc(C(=O)NC[C@H](O)CN2CCc3ccccc3C2)ncn1 [Compound 354]	1000 to 10000	–	–
–	–	< 100	< 100	CNCCOc1cc(C(=O)NC[C@H](O)CN2CCc3ccccc3C2)ccn1 [Compound 420]	–	1000 to 10000	–
–	–	1000 to 10000	> 1000	COC(CNC(=O)c1cc(NC2CCN(C)CC2)ncn1)CN1CCc2ccccc2C1 (stereo not drawn) [Compound 540]	–	> 5000	–
101 to 1000	< 100	–	–	NCCOc1ccc2cc(C(=O)NC[C@H](O)CN3CCc4ccccc4C3)ccc2c1 [Compound 360]	1000 to 10000	–	–
–	–	< 100	< 100	CC(C)C(=O)N1CCN(c2nc(NC3COC3)cc(C(=O)NC[C@H](O)CN3CCc4ccccc4C3)n2)CC1 [Compound 463]	–	< 100	–
–	–	< 100	< 100	CC(=O)N1CC(Nc2cc(C(=O)NC[C@H](O)CN3CCc4ccccc4C3)nc(C(C)C)n2)C1 [Compound 457]	–	< 100	–
–	–	< 100	< 100	O=C(NC[C@H](O)CN1CCc2ccccc2C1)c1cnnc(NC2CCOCC2)c1 [Compound 693]	–	101 to 1000	–
–	–	< 100	< 100	CO[C@H]1C[C@@H](Nc2cc(C(=O)NC[C@H](O)CN3CCc4ccccc4C3)ncn2)C1 [Compound 563]	–	101 to 1000	–
–	–	< 100	< 100	CC(=O)N1CCC(Nc2cc(C(=O)NC[C@H](O)CN3CCc4ccccc4C3)cc(N3CCN(C)CC3)n2)CC1 [Compound 612]	–	< 100	–
–	–	< 100	< 100	COC(CNC(=O)c1ccnc(NC2CCN(C(C)=O)CC2)c1)CN1CCc2ccccc2C1 (stereo not drawn) [Compound 691]	–	1000 to 10000	–
–	–	101 to 1000	101 to 1000	CC1c2ccccc2CCN1C[C@@H](O)CNC(=O)c1cc(NC2COC2)ncn1 (stereo partly drawn) [Compound 573]	–	> 5000	–
< 100	< 100	–	–	Cc1cnc(OC2CCOCC2)cc1C(=O)NC[C@H](O)CN1CCc2ccccc2C1 [Compound 309]	1000 to 10000	–	–
101 to 1000	< 100	–	–	CN(C[C@H](O)CN1CCc2ccccc2C1)C(=O)c1ccnc(NC2CCOCC2)c1 [Compound 357]	1000 to 10000	–	–
–	–	1000 to 10000	> 1000	COC(CNC(=O)c1cc(NC2CCNCC2)ncn1)CN1CCc2ccccc2C1 (stereo not drawn) [Compound 538]	–	> 5000	–
–	–	< 100	< 100	CN(C)CCN(C)c1nc(NC2COC2)cc(C(=O)NC[C@H](O)CN2CCc3ccccc3C2)n1 [Compound 525]	–	101 to 1000	–
–	–	< 100	< 100	CCN1CCN(c2nc(NC3COC3)cc(C(=O)NC[C@H](O)CN3CCc4ccccc4C3)n2)CC1 [Compound 477]	–	< 100	–
–	–	< 100	< 100	COCCO[C@H]1C[C@@H](Nc2cc(C(=O)NC[C@H](O)CN3CCc4ccccc4C3)ncn2)C1 [Compound 560]	–	101 to 1000	–
–	–	< 100	> 1000	Cc1cnc(NC2CN(C)C2)cc1C(=O)NC[C@H](O)CN1CCc2ccccc2C1 [Compound 403]	–	> 20000	–
–	–	< 100	101 to 1000	O=C(NC[C@H](O)CN1CCc2ccccc2C1)c1cc(NC2CNC2)nc(N2CCN(C(=O)C3CC3)CC2)n1 [Compound 485]	–	1000 to 10000	–
–	–	< 100	< 100	CC(=O)N1CCN(c2cc(C(=O)NC[C@H](O)CN3CCc4ccccc4C3)cc(NC3CCC3)n2)CC1 [Compound 398]	–	< 100	–
–	–	101 to 1000	101 to 1000	CC(=O)N1CC(Nc2cc(C(=O)NC[C@H](O)CN3CCc4ccccc4C3(C)C)ncn2)C1 [Compound 605]	–	> 5000	–
< 100	< 100	–	–	O=C(NC[C@H](O)CN1CCc2ccccc2C1)c1ccc(OC2CCCNC2)cc1 (stereo partly drawn) [Compound 347]	101 to 1000	–	–
< 100	< 100	–	–	CC(=O)N1CC(Nc2cc(C(=O)NC[C@H](O)CN3CCc4ccccc4C3)c(C)cn2)C1 [Compound 380]	101 to 1000	–	–

IC50 (PRMT5/MEP50) [nM]	EC50 [1] [nM]	IC50 (PRMT5/MEP50; PRMT5 biochemical assay) [nM]	EC50 ([1]; In Cell Western methylation) [nM]	SMILES	EC50 (Z-138 cell line; 120 h, Z-138 cells, 5 days) [nM]	EC50 (Z-138 cell line; [2]) [nM]	EC50 (Z-138 cell line; Z-138, 120 h) [nM]
–	–	< 100	> 1000	CN(c1cc(C(=O)NC[C@H](O)CN2CCc3ccccc3C2)ncn1)C1COC1 [Compound 448]	–	> 20000	–
–	–	< 100	101 to 1000	CCc1nc(NC2CNC2)cc(C(=O)NC[C@H](O)CN2CCc3ccccc3C2)n1 [Compound 487]	–	1000 to 10000	–
–	–	1000 to 10000	> 1000	CC(O)(CNC(=O)c1cc(NC2CCNCC2)ncn1)CN1CCc2ccccc2C1 (stereo not drawn) [Compound 647]	–	> 5000	–
–	–	< 100	< 100	CC(=O)N1CCC(Nc2cc(C(=O)NC[C@H](O)CN3CCc4c(C)cccc4C3)ncn2)CC1 [Compound 677]	–	1000 to 10000	–
–	–	< 100	< 100	O=C(NC[C@H](O)CN1CCc2ccccc2C1)c1cc(N[C@H]2CC[C@@H](C(=O)N3CCOCC3)CC2)ncn1 [Compound 599]	–	1000 to 10000	–
–	–	< 100	< 100	CN1CCN(c2cc(C(=O)NC[C@H](O)CN3CCc4ccccc4C3)cc(NC3CCC3)n2)CC1 [Compound 413]	–	< 100	–
–	–	< 100	101 to 1000	CN(CCN)c1nc(NC2CNC2)cc(C(=O)NC[C@H](O)CN2CCc3ccccc3C2)n1 [Compound 481]	–	1000 to 10000	–
–	–	< 100	< 100	O=C(NC[C@H](O)CN1CCc2ccccc2C1)c1cc(NC2COC2)nc(C(F)(F)F)n1 [Compound 405]	–	101 to 1000	–
–	–	101 to 1000	101 to 1000	CC(=O)N1CC(Nc2cc(C(=O)NCC(F)CN3CCc4ccccc4C3)ncn2)C1 (stereo not drawn) [Compound 655]	–	> 5000	–
–	–	< 100	101 to 1000	CC(=O)N1CC(Nc2cc(C(=O)NC[C@H](O)CN3CCc4ccccc4C3)cnn2)C1 [Compound 629]	–	1000 to 10000	–
< 100	< 100	–	–	CCNCCCOc1ccc(C(=O)NC[C@H](O)CN2CCc3ccccc3C2)cc1 [Compound 396]	1000 to 10000	–	–
–	–	< 100	> 1000	O=C(NC[C@H](O)CN1CCc2ccccc2C1)c1cnnc(NC2CCNC2)c1 (stereo partly drawn) [Compound 686]	–	> 5000	–
–	–	< 100	< 100	O=C(NC[C@H](O)CN1CCc2ccccc2C1)c1ccnc(OCCNCC(F)(F)F)c1 [Compound 421]	–	1000 to 10000	–
–	–	< 100	101 to 1000	CS(=O)(=O)CCNc1cc(C(=O)NC[C@H](O)CN2CCc3ccccc3C2)ncn1 [Compound 555]	–	1000 to 10000	–
< 100	< 100	–	–	O=C(NC[C@H](O)CN1CCc2ccccc2C1)c1ccc2[nH]nnc2c1 [Compound 305]	101 to 1000	–	–
101 to 1000	101 to 1000	–	–	CN(C[C@H](O)CN1CCc2ccccc2C1)C(=O)c1cc(NC2COC2)ncn1 [Compound 364]	1000 to 10000	–	–
–	–	< 100	< 100	CC(=O)N1CCC(Nc2cc(C(=O)NC[C@H](O)CN3CCc4ccc(C)cc4C3)ccn2)CC1 [Compound 669]	–	101 to 1000	–
–	–	< 100	< 100	CC(=O)N1CC(Nc2cc(C(=O)NC[C@H](O)CN3CCc4ccccc4C3C)ncn2)C1 (stereo partly drawn) [Compound 583]	–	1000 to 10000	–
–	–	< 100	< 100	NC(=O)[C@H]1CC[C@H](Nc2cc(C(=O)NC[C@H](O)CN3CCc4ccccc4C3)ncn2)CC1 [Compound 601]	–	101 to 1000	–
–	–	1000 to 10000	> 1000	CC1(C)c2ccccc2CCN1C[C@@H](O)CNC(=O)c1cc(NC2COC2)ncn1 [Compound 588]	–	> 5000	–
–	–	< 100	< 100	O=C(NC[C@H](O)CN1CCc2ccccc2C1)c1cc(O)nc(NC2CCC2)c1 [Compound 434]	–	101 to 1000	–
–	–	< 100	< 100	CC(=O)N1CCC(Nc2cc(C(=O)NC[C@H](O)CN3CCc4ccccc4C3)cc(N(C)C)n2)CC1 [Compound 610]	–	< 100	–
< 100	101 to 1000	–	–	CN(CCNCC(F)(F)F)c1cc(C(=O)NC[C@H](O)CN2CCc3ccccc3C2)ccn1 [Compound 359]	1000 to 10000	–	–
–	–	< 100	< 100	CC(=O)N1CC(Nc2cc(C(=O)NC[C@H](O)CN3CCc4ccccc4C3)nc(N3CCCCC3)n2)C1 [Compound 441]	–	< 100	–

SMILES	IC50 (PRMT5/MEP50) [nM]	EC50 [1] [nM]	IC50 (PRMT5/MEP50; PRMT5 biochemical assay) [nM]	EC50 ([1]; In Cell Western methylation) [nM]	EC50 (Z-138 cell line; 120 h, Z-138 cells, 5 days) [nM]	EC50 (Z-138 cell line; [2]) [nM]	EC50 (Z-138 cell line; Z-138, 120 h) [nM]
CC(=O)N1CCC(Nc2cc(C(=O)NCC(F)CN3CCc4ccccc4C3)ccn2)CC1 (stereo not drawn) [Compound 698]	–	–	< 100	< 100	–	–	1000 to 10000
CCS(=O)(=O)CCN1CCC(Nc2cc(C(=O)NC[C@H](O)CN3CCc4ccccc4C3)ncn2)CC1 [Compound 640]	–	–	< 100	< 100	–	–	101 to 1000
